# Biological target: T1, recombinant human MNL phosphodiesterase type IV B (Homo sapiens, UniProt Q07343)
# T1 construct: FLAG; made in house; host or cells: insect cells infected with recombinant baculovirus
# Assay: Inhibition of recombinant human mononuclear lymphocyte (MNL) phosphodiesterase type IV B produced in insect cells with a baculovirus vector
# Assay type: biochemical
# Conditions: remaining enzyme activity versus control
# Method: Inhibition of Recombinant Human Mononuclear Lymphocyte (MNL) Phosphodiesterase Type IV B Produced in Insect Cells with a Baculovirus Vector
# The alleviating and/or curing effect of the instant compounds on allergic and atopic diseases was assessed by an in vitro assay system to detect an inhibiting effect on the recombinant human MNL phosphodiesterase type IV B.
# Seventy-two hours after infection with recombinant baculovirus, the insect cells were harvested and pelleted at 500 g for 5 minutes. The cells were lysed in 10 ml lysis-buffer consisting of 20 mM Tris, 10 mM EGTA, 2 mM Na2EDTA, 1% Triton-X-100, 1 mM Na3VO4, 10 mM NaF, 2 μg/ml of leupeptine, pepstatine and aprotinine, 0.3 μg/ml benzamidine and 100 μg/ml TPCK pH 7.5. After 5 minutes on ice, solubilized cells were centrifuged at 4000 rpm for 15 minutes at 4° C. The resulting supernatant was filtered through a 0.45 μm filter (Millipore) and brought to TBS buffer (50 mM Tris, 150 mM NaCl pH 7.4).
# The supernatant containing phosphodiesterase (PDE) type IV B, was subsequently loaded onto a 5 ml anti-FLAG-M2 affinity gel column, previously activated with 5 ml 100 mM glycine pH 3.5 and equilibrated with 20 ml 50 mM Tris, 150 mM NaCl pH 7.4. After washing the column with equilibration buffer, PDE IV was eluted in 1.5 ml fractions containing 37.5 μl IM Tris pH 8. The fractions were dialyzed overnight against 20 mM Tris, 2mM Na2EDTA and 400 mM NaCl pH 7.5 and tested for PDE IV activity. Identification was done on SDS PAGE and Western Blot (anti-FLAG-M2). Active fractions were pooled, brought to 10% glycerol and stored at −70° C.
# The incubation mixture (pH 8) (200 μl) contained 20 mM Tris, 10 mM magnesium sulphate, 0.8 μM ^3H-cAMP (310 mCi/mmole) and the phosphodiesterase type IV, the amount depending on the enzymatic activity. […]
# The inhibiting effect of the present compounds on recombinant human MNL phosphodiesterase PDE IV B was measured at different concentrations of the instant compounds.
# T1 sequence (Q07343 whole entry): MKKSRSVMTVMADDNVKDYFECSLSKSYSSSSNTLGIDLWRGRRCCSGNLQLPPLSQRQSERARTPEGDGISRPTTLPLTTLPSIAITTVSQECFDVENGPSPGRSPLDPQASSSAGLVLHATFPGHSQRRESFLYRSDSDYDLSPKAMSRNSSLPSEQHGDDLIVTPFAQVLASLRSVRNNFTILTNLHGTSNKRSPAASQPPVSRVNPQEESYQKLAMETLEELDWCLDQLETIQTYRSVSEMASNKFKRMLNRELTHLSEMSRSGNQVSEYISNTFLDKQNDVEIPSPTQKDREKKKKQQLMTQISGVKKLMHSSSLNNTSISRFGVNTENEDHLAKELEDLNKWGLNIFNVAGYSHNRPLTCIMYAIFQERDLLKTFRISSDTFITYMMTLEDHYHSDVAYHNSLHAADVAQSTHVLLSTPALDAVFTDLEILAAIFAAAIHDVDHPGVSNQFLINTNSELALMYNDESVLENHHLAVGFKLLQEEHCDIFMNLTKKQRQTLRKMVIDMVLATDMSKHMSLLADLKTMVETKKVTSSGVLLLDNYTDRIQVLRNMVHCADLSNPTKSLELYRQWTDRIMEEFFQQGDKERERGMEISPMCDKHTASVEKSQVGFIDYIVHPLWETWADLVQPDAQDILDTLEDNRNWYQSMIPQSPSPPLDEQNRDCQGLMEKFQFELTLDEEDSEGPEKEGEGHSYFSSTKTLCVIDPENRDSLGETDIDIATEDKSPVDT
% Activity (% activity of PDE IV B versus control) (Test Dose 10^−6 M) [%],% Activity (% activity of PDE IV B versus control) (Test Dose 10^−7 M) [%],Structure (SMILES)
35,–,"COc1cnc(C(C)(O)Cn2cc[nH]c2=O)cc1OCCCCCc1ccccc1 (racemic) [Compound 23, (±)-1,3-dihydro-1-[2-hydroxy-2-[5-methoxy-4-[(5-phenylpentyl)oxy]-2-pyridinyl]propyl]-2H-imidazol-2-one]"
–,25,"COc1ccc(C(C)Cn2cc[nH]c2=NC#N)nc1OC1CCCC1 (racemic) [Compound 22, (±)-[1-[2-[6-(cyclopentyloxy)-5-methoxy-2-pyridinyl]propyl]-1,3-dihydro-2H-imidazol-2-ylidene]cyanamide]"
77,–,"COc1cnc(C(O)Cn2cc[nH]c2=O)cc1OCCCCCc1ccccc1 (stereo not drawn) [Compound 18, 1,3-dihydro-1-[2-hydroxy-2-[5-methoxy-4-[(5-phenylpentyl)oxy]-2-pyridinyl]ethyl]-2H-imidazol-2-one]"
